Results taken from patent US7812042B2, “Pharmaceutical compositions and therapeutic applications for the use of a novel vitamin B12 derivative, N-acetyl-L-cysteinylcobalamin” (priority 2006, dated 2010).
“And” between values parts separate entries of the source, which are not always exact repeats. Equal values may be shown once.

Key:
SK-HEP-1 cells [1] = assay: Protection of endothelial cells from H2O2-induced cell death (MTS assay); format: cell-based, Human; settings: 2 hours pre-incubation, then 25 μM H2O2 24 hours
Procedure: The effect of increasing concentrations of NACCbl and GSCbl to protect endothelial cells from the effect of H2O2 was assessed. […] Cell viability was determined by MTS® assay. […] Cell viability was determined by MTS® assay. […] Cell viability was determined by MTS® assay.

SK-HEP-1 cells [2] = assay: NACCbl protection from homocysteine with Hsp32/Hsp70 inhibited by Sn(IX) protoporphyrin, quercitin or siRNA (MTS assay); format: cell-based, Human; settings: for cell viability (MTS), raw readings (FIG. 11): NACCbl 30 μM pre-treatment two hours with/without Sn(IX)PP, quercetin, replicates 1-6
Excerpt: siRNAs for human HO-1 were synthesised in 2′-deprotected, duplexed, desalted and purified form by Dharmacon Research Inc., published sequences from Zhang et al., (Zhang, Shan et al. 2004). Human Hsp70 primers were from proprietary sequences, and all control non-targeting primer sequences were also synthesised by Dharmacon Research Inc.
Transfection was optimised using a standard siControl Tox protocol. All transfection experiments included non-targeted siRNA.
Cells were trypsinized and plated into 12- or 96-well plates at cell density of 2×10^5, then incubated for 24 hours until adherent. Complexed siRNA and transfection agent at 100 nm was added directly to each experimental well. Plates were incubated at 37° C. for 32.5 hours for mRNA gene analysis experiments or 72 hours for protein analysis by Western Blot.
Complexed siRNA and transfection agent was added to each well of either 12- or 96-well plates. Cells were then trypsinized and added directly into each test well at cell density of 2×10^5. Plates were incubated at 37° C. for 32.5 hours for mRNA gene analysis experiments or 72 hours for protein analysis by Western Blot.
Hsp32 was inhibited using either Sn (IX) protoporhyrin or using an siRNA which specifically knocks out Hsp32. Hsp70 was inhibited using quercitin or using an siRNA which specifically knocks out Hsp70. In addition, two methods were used to inhibit both Hsp32 and Hsp70: chemically Sn (IX) protoporphyrin plus quercitin was used; and then, directly, a combination of the siRNA for both genes was used simultaneously.

SK-HEP-1 cells [3] = assay: Effect of high concentrations of NACCbl and GSCbl on SK-HEP-1 cells (MTS assay); format: cell-based, Human; parameters: cell viability (MTS), raw readings (FIG. 13): reference not given here; settings: 24 hours; for cell viability (MTS), raw readings (FIG. 13): 3 replicates
[4] = Decomposition of thiolatocobalamins in PBS at 37° C. monitored by UV/Vis spectrophotometry; format: physicochemical; settings: decomposition in PBS at 37° C.
Procedure: The decomposition of GSCbl, NACCbl, and HcyCbl in PBS at 37° C. was monitored by UV/Vis spectrophotometry.

CC(=O)NC(C[S-])C(=O)O.CC1=C2N=C(C=C3N=C(C(C)=C4[N-]C(C(CC(N)=O)C4(C)CCC(=O)NCC(C)OP(=O)([O-])OC4C(CO)OC(n5cnc6cc(C)c(C)cc65)C4O)C4(C)N=C1C(CCC(N)=O)C4(C)CC(N)=O)C(CCC(N)=O)C3(C)C)C(CCC(N)=O)C2(C)CC(N)=O.[Co+3] [NACCbl, N-acetyl-L-cysteinylcobalamin]
concentration required to achieve >80% survival (SK-HEP-1 cells [1]): 100 µM
pre-incubation concentration that protected cells from H2O2-induced cell death (SK-HEP-1 cells [1]): ≥ 2.0 µM
cell viability (MTS), raw readings (FIG. 11) (SK-HEP-1 cells [2]; Hcy 0): 2.885 and 2.698 and 2.821 and 2.771 and 2.691 and 2.7
cell viability (MTS), raw readings (FIG. 11) (SK-HEP-1 cells [2]; Hcy 1.78 (μM) two hours, where named): 2.647 and 2.551 and 2.789 and 2.89 and 2.549 and 2.611
cell viability (MTS), raw readings (FIG. 11) (SK-HEP-1 cells [2]; Hcy 3.125 (μM) two hours, where named): 2.453 and 2.338 and 2.36 and 2.317 and 2.418 and 2.535
cell viability (MTS), raw readings (FIG. 11) (SK-HEP-1 cells [2]; Hcy 6.25 (μM) two hours, where named): 2.41 and 2.4 and 2.322 and 2.201 and 2.115 and 2.187
cell viability (MTS), raw readings (FIG. 11) (SK-HEP-1 cells [2]; Hcy 12.5 (μM) two hours, where named): 2.21 and 2.11 and 2.045 and 2.065 and 2.101 and 2.324
cell viability (MTS), raw readings (FIG. 11) (SK-HEP-1 cells [2]; Hcy 25 (μM) two hours, where named): 2.1 and 2.19 and 1.879 and 1.937 and 1.779 and 1.837
cell viability (MTS), raw readings (FIG. 11) (SK-HEP-1 cells [2]; Hcy 50 (μM) two hours, where named): 1.678 and 1.832 and 1.881 and 1.73 and 1.74 and 1.855
cell viability (MTS), raw readings (FIG. 11) (SK-HEP-1 cells [2]; Hcy 100 (μM) two hours, where named): 1.678 and 1.592 and 1.694 and 1.773 and 1.732 and 1.639
cell viability (MTS), raw readings (FIG. 11) (SK-HEP-1 cells [2]; Hcy 200 (μM) two hours, where named): 1.378 and 1.167 and 1.33 and 1.456 and 1.491 and 1.537
effect of inhibition of both Hsp32 and Hsp70 together on protection by NACCbl (SK-HEP-1 cells [2]; both methods (chemically and directly), NACCbl 30 μM): totally removed protection
survival (SK-HEP-1 cells [3]; 10 mM): over 60%
cell viability (MTS), raw readings (FIG. 13) (SK-HEP-1 cells [3]; compound conc. 0.61 (μM scale)): 2.572 and 2.498 and 2.473
cell viability (MTS), raw readings (FIG. 13) (SK-HEP-1 cells [3]; compound conc. 1.22 (μM scale)): 2.546 and 2.524 and 2.538
cell viability (MTS), raw readings (FIG. 13) (SK-HEP-1 cells [3]; compound conc. 2.441 (μM scale)): 2.592 and 2.536 and 2.499
cell viability (MTS), raw readings (FIG. 13) (SK-HEP-1 cells [3]; compound conc. 4.882 (μM scale)): 2.532 and 2.463 and 2.457
cell viability (MTS), raw readings (FIG. 13) (SK-HEP-1 cells [3]; compound conc. 9.765 (μM scale)): 2.505 and 2.474 and 2.514
cell viability (MTS), raw readings (FIG. 13) (SK-HEP-1 cells [3]; compound conc. 19.531 (μM scale)): 2.485 and 2.466 and 2.502
cell viability (MTS), raw readings (FIG. 13) (SK-HEP-1 cells [3]; compound conc. 39.062 (μM scale)): 2.503 and 2.474 and 2.453
cell viability (MTS), raw readings (FIG. 13) (SK-HEP-1 cells [3]; compound conc. 78.125 (μM scale)): 2.521 and 2.488 and 2.475
cell viability (MTS), raw readings (FIG. 13) (SK-HEP-1 cells [3]; compound conc. 156.25 (μM scale)): 2.484 and 2.42 and 2.492
cell viability (MTS), raw readings (FIG. 13) (SK-HEP-1 cells [3]; compound conc. 312.5 (μM scale)): 2.409 and 2.301 and 2.437
cell viability (MTS), raw readings (FIG. 13) (SK-HEP-1 cells [3]; compound conc. 625 (μM scale)): 2.358 and 2.242 and 2.347
cell viability (MTS), raw readings (FIG. 13) (SK-HEP-1 cells [3]; compound conc. 1250 (μM scale)): 2.2 and 2.055 and 2.3
cell viability (MTS), raw readings (FIG. 13) (SK-HEP-1 cells [3]; compound conc. 2500 (μM scale)): 1.989 and 1.891 and 2.085
cell viability (MTS), raw readings (FIG. 13) (SK-HEP-1 cells [3]; compound conc. 5000 (μM scale)): 2.081 and 2.003 and 2.004
cell viability (MTS), raw readings (FIG. 13) (SK-HEP-1 cells [3]; compound conc. 10000 (= 10 mM)): 1.908 and 1.82 and 1.732
t1/2 [4]: No decomposition within 20 hours
